Converted amounts (≈) assume the structure as drawn.
The compounds below were run on L1210 (assay: Cytotoxicity against mouse L1210 cells).
Format: functional, cell-based

Row | Compound | IC50
1 | CC(=O)CC[C@H]1C(C)(C)CCC[C@]1(C)C(=O)CCC1=CCOC1=O [CHAPECODERIN A] | > 10 µg/mL
2 | CC(=O)[C@@H]1C[C@H]2C(C)(C)CCC[C@]2(C)[C@@]1(O)CCC1=CCOC1=O [CHAPECODERIN B] | 7.2 µg/mL (≈ 21.5 µM)
3 | CC(=O)C1=C(CCC2=CCOC2=O)[C@@]2(C)CCCC(C)(C)[C@@H]2C1 [CHAPECODERIN C] | 6 µg/mL (≈ 19 µM)

Source: ChEMBL document CHEMBL1155697, “Chapecoderins A-C, new labdane-derived diterpenoids from Echinodorus macrophyllus” (J Nat Prod, 2000)
